In ChEMBL document CHEMBL2439980, “Discovery of (S,E)-3-(2-fluorophenyl)-N-(1-(3-(pyridin-3-yloxy)phenyl)ethyl)-acrylamide as a potent and efficacious KCNQ2 (Kv7.2) opener for the treatment of neuropathic pain” (Bioorg Med Chem Lett, 2013):
Calls of active or inactive are those of the source.

Experiments:
[1] = target: Potassium voltage-gated channel subfamily KQT member 2 (Mus musculus) (UniProt Q9Z351); experiment: Induction of mouse KCNQ2 expressed in HEK293 cells at -40 mV holding potential by whole-cell patch clamp assay relative to (+/-)-N-(1-(benzo[d][1,3]dioxol-5-yl)ethyl)-3-(2-chlorophenyl)acrylamide; type: cell-based
Chain of Potassium voltage-gated channel subfamily KQT member 2 (Mus musculus) (Q9Z351 whole entry): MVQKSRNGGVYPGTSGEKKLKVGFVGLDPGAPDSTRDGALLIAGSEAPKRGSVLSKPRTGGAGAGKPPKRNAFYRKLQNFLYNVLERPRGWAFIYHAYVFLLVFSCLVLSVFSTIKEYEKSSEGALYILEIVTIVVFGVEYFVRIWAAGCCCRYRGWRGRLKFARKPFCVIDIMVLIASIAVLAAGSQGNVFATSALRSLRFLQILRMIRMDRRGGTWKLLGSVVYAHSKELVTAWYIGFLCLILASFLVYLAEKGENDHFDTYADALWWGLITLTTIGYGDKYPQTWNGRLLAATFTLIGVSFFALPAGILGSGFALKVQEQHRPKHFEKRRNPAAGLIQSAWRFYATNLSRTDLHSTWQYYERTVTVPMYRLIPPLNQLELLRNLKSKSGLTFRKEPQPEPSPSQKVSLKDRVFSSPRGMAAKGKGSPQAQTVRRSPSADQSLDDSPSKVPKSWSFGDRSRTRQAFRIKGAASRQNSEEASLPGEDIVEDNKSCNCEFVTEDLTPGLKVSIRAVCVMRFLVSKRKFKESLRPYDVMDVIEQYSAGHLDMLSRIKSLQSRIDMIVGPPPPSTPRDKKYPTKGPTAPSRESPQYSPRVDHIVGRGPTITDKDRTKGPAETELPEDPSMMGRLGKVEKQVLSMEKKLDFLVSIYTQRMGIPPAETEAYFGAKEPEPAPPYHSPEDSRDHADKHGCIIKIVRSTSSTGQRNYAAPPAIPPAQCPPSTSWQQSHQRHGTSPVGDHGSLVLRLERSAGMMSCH

[2] = target: Potassium voltage-gated channel subfamily KQT member 2 (Mus musculus, UniProt Q9Z351); experiment: Induction of mouse KCNQ2 expressed in HEK293 cells at -40 mV holding potential by whole-cell patch clamp assay; type: cell-based
Chain of Potassium voltage-gated channel subfamily KQT member 2 (Q9Z351 whole entry): as above

Rattus norvegicus [3] = experiment: Analgesic activity in Sprague-Dawley rat L5/L6 spinal nerve injury Chung model of neuropathic pain assessed as […] hair-induced paw withdrawal threshold at 10 mg/kg, iv measured after 15 mins relative to vehicle-treated control; type: functional, organism-based; parameters: dose 10 mg/kg
[4] = Drug uptake in Sprague-Dawley rat brain at 1 mg/kg, iv measured after 1 hr; type: ADME, organism-based; parameters: dose 1 mg/kg, route intravenous; conditions: read-out: Drug uptake
[5] = Drug uptake in Sprague-Dawley rat brain at 1 mg/kg, iv measured after 15 mins; type: ADME, organism-based; parameters: dose 1 mg/kg, route intravenous; conditions: read-out: Drug uptake
Rattus norvegicus [6] = experiment: Analgesic activity in rat assessed reduction formalin-induced second phase pain response at 10 mg/kg, iv administered 8 mins post formalin challenge; type: functional, organism-based; parameters: dose 10 mg/kg
Rattus norvegicus [7] = experiment: Analgesic activity in Sprague-Dawley rat L5/L6 spinal nerve injury Chung model of neuropathic pain assessed as […] hair-induced paw withdrawal threshold at 3 mg/kg, iv measured after 15 to 90 mins relative to vehicle-treated control; type: functional, organism-based; parameters: dose 3 mg/kg
[8] = target: Potassium voltage-gated channel subfamily KQT member 2 (Mus musculus) (UniProt Q9Z351); experiment: Induction of mouse KCNQ2 expressed in HEK293 cells at -40 mV holding potential by whole-cell patch clamp assay relative to retigabine; type: cell-based
Rattus norvegicus [9] = experiment: Analgesic activity in rat assessed reduction formalin-induced initial pain response at 10 mg/kg, iv administered 2 mins before formalin challenge; type: functional, organism-based; parameters: dose 10 mg/kg
Rattus norvegicus [10] = experiment: Analgesic activity in STZ-induced diabetic neuropathy rat model assessed as prolongation of reversal of hypersensitivity time at 3 mg/kg, iv measured after 15 to 90 mins relative to vehicle-treated control; type: functional
Rattus norvegicus [11] = experiment: Toxicity in Sprague-Dawley rat assessed as […] at 10 mg/kg, iv after 10 mins by rotorod test; type: organism-based; parameters: dose 10 mg/kg, route intravenous; conditions: in vivo
Rattus norvegicus [12] = experiment: Analgesic activity in rat assessed reduction formalin-induced second phase pain response at 100 mg/kg, iv administered 8 mins post formalin challenge; type: functional, organism-based; parameters: dose 100 mg/kg
Rattus norvegicus [13] = experiment: Analgesic activity in Sprague-Dawley rat L5/L6 spinal nerve injury Chung model of neuropathic pain assessed as […] hair-induced paw withdrawal threshold at 100 mg/kg, iv measured after 15 to 90 mins relative to vehicle-treated control; type: functional, organism-based; parameters: dose 100 mg/kg
Rattus norvegicus [14] = experiment: Analgesic activity in rat assessed reduction formalin-induced initial pain response at 100 mg/kg, iv administered 2 mins before formalin challenge; type: functional, organism-based; parameters: dose 100 mg/kg

Compound: C[C@H](NC(=O)/C=C/c1ccccc1F)c1ccc2c(c1)N(CC1CC1)CCO2
- Ratio [1]: 1.8

Compound: C[C@H](NC(=O)/C=C/c1cc(F)ccc1F)c1cccc(Oc2ccncc2)c1
- EC50 [2]: 0.9 nM
- Activity (Rattus norvegicus [3]): Active
- concentration at 1 h [4]: 42 nM
- concentration at 0.25 h [5]: 160 nM
- Ratio [1]: 2.9

Compound: C[C@H](NC(=O)/C=C/c1ccccc1F)c1cccc(-c2ccc(F)nc2)c1
- Ratio [1]: 0.85

Compound: C[C@H](NC(=O)/C=C/c1ccccc1)c1cccc(N2CCOCC2)c1
- Ratio [1]: 1.4

Compound: CCOC(=O)Nc1ccc(NCc2ccc(F)cc2)cc1N
- Ratio [1]: 1.6

Compound: C[C@H](NC(=O)/C=C/c1ccccc1F)c1cccc(Oc2cccnc2)c1
- Activity (Rattus norvegicus [6]): Active
- EC50 [2]: 2.4 nM
- Activity (Rattus norvegicus [3]): Active
- Activity (Rattus norvegicus [7]): inactive
- concentration at 1 h [4]: 560 nM
- Efficacy [8]: 38%
- Activity (Rattus norvegicus [9]): Active
- concentration at 0.25 h [5]: 2000 nM
- Ratio [1]: 2.2
- Time (Rattus norvegicus [10]): 15 min
- Activity (Rattus norvegicus [11]): Non-toxic

Compound: C[C@@H](NC(=O)/C=C/c1cc(F)ccc1F)c1cccc(Oc2ccncc2)c1
- EC50 [2]: > 10000 nM

Compound: C[C@H](NC(=O)/C=C/c1ccccc1Cl)c1ccc2c(c1)OCO2
- Ratio [1]: 1.1

Compound: NCC1(CC(=O)O)CCCCC1
- Activity (Rattus norvegicus [12]): Active
- Activity (Rattus norvegicus [13]): Active
- Activity (Rattus norvegicus [14]): inactive

Compound: C[C@@H](NC(=O)/C=C/c1ccccc1F)c1cccc(Oc2cccnc2)c1
- EC50 [2]: > 10000 nM
